# pIC50: −log10 of the molar value. Like-named read-outs stand apart in the source and are kept apart here.
# Columns and labels:
# Format in all cases: cell-based
# [1] = tested on: renal carcinoma cells (786-O); assay: In vitro potency (CellTiter-Glo, 96 h), 786-O; conditions: Homo sapiens, 786-0, 96 h
# How it was run: (§1)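 Log-phase cells were seeded for 24 h in RPMI 1640 with 20% FBS, then exposed to serially diluted antibody-drug conjugates or free camptothecin drug for 4 days at 37 °C. Growth inhibition was read by luminescence, and IC50 values were reported in ng/mL and nmol/L.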
# [2] = tested on: melanoma cells (A2058); assay: In vitro potency (CellTiter-Glo, 96 h), A2058; conditions: Homo sapiens, A2058, 96 h
# How it was run: (§2)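 Medium: RPMI 1640 + 20% FBS. Pre-seeding: 24 h. Treatment: ADC or CPT free drug serial dilutions, 96 h, 37 °C. Read-out: luminescence; IC50 in ng/mL and nmol/L.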
# [3] = tested on: pancreatic cancer cells (BxPC3); assay: In vitro potency (CellTiter-Glo, 96 h), BxPC3; conditions: Homo sapiens, BXPC-3, 96 h
# How it was run: as §2
# [4] = tested on: non-small-cell lung cancer cells (Calu1); assay: In vitro potency (CellTiter-Glo, 96 h), Calu1; conditions: Homo sapiens, Calu-1, 96 h
# How it was run: as §2
# [5] = tested on: anaplastic large cell lymphoma cells (DEL); assay: In vitro potency (CellTiter-Glo, 96 h), DEL
# How it was run: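 Authenticated lines (STR), used within 2 months of resuscitation, were seeded 24 h before treatment. Exposure to ADC dilutions lasted 96 h at 37 °C in RPMI 1640 with 20% FBS; viability was quantified luminescently.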
# [6] = tested on: anaplastic large cell lymphoma cells (DELBVR); assay: In vitro potency (CellTiter-Glo, 96 h), DELBVR
# How it was run: as §1
# [7] = tested on: anaplastic large cell lymphoma cells (Karpas299); assay: In vitro potency (CellTiter-Glo, 96 h), Karpas299; conditions: Homo sapiens, KARPAS-299, 96 h
# How it was run: as §1
# [8] = tested on: Hodgkin's lymphoma cells (L540cy); assay: In vitro potency (CellTiter-Glo, 96 h), L540cy
# How it was run: as §1
# [9] = tested on: Ls174T cells; assay: In vitro potency (CellTiter-Glo, 96 h), Ls174T; conditions: Homo sapiens
# How it was run: as §2
# [10] = tested on: breast cancer cells (MDA-MB-231); assay: In vitro potency (CellTiter-Glo, 96 h), MDA-MB-231; conditions: Homo sapiens, MDA-MB-231, 96 h
# How it was run: as §1
# [11] = tested on: acute myeloid leukemia cells (MOLM-13); assay: In vitro potency (CellTiter-Glo, 96 h), MOLM-13; conditions: Homo sapiens, MOLM-13, 96 h
# How it was run: as §2
# [12] = tested on: B-lymphocyte cancer cells (SU-DHL4); assay: In vitro potency (CellTiter-Glo, 96 h), SU-DHL-4; conditions: Homo sapiens, SU-DHL-4, 96 h
# How it was run: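 Following a 24 h seeding period in 20% FBS-supplemented RPMI 1640, log-phase cells receive graded concentrations of conjugate. Incubation runs for 4 days at 37 °C, after which luminescence is recorded and IC50 calculated in ng/mL.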
# [13] = read-out: IC50 (nmol/L) 786-O, CPT free drugs, Table 24, CellTiter-Glo after 96 h exposure
# [14] = read-out: IC50 (nmol/L) BxPC3, CPT free drugs, Table 24, CellTiter-Glo after 96 h exposure
# [15] = read-out: IC50 (nmol/L) DEL, CPT free drugs, Table 24, CellTiter-Glo after 96 h exposure
# [16] = read-out: IC50 (nmol/L) DELBVR, CPT free drugs, Table 24, CellTiter-Glo after 96 h exposure
# [17] = read-out: IC50 (nmol/L) Karpas299, CPT free drugs, Table 24, CellTiter-Glo after 96 h exposure
# [18] = read-out: IC50 (nmol/L) L540cy, CPT free drugs, Table 24, CellTiter-Glo after 96 h exposure
# [19] = LS174T, 96 h, read-out: IC50 (nmol/L) Ls174T, CPT free drugs, Table 24, CellTiter-Glo after 96 h exposure
# [20] = read-out: IC50 (nmol/L) MDAMB231, CPT free drugs, Table 24, CellTiter-Glo after 96 h exposure
# [21] = read-out: IC50 (nmol/L) MOLM-13, CPT free drugs, Table 24, CellTiter-Glo after 96 h exposure
# [22] = read-out: IC50 (nmol/L) SU-DHL-4, CPT free drugs, Table 24, CellTiter-Glo after 96 h exposure
smiles,measurement,setting,value
CC[C@@]1(O)C(=O)OCc2c1cc1n(c2=O)Cc2c-1nc1cc(F)c(C)c(C3=CCOC3)c1c2CN [Compound 6d],pIC50,"[1]; Table 28, CPT free drugs, renal carcinoma cells 786-O, 96 h, CellTiter-Glo, read-out: 786-O IC50",7.64
same,pIC50,"[2]; Table 28, CPT free drugs, melanoma cells A2058, 96 h, CellTiter-Glo, read-out: A2058 IC50",7.89
same,pIC50,"[3]; Table 28, CPT free drugs, pancreatic cancer cells BxPC3, 96 h, CellTiter-Glo, read-out: BxPC3 IC50",7.82
same,pIC50,"[4]; Table 28, CPT free drugs, non-small-cell lung cancer cells Calu1, 96 h, CellTiter-Glo, read-out: Calu1 IC50",7.37
same,pIC50,"[5]; Table 28, CPT free drugs, anaplastic large cell lymphoma cells DEL, CellTiter-Glo, read-out: DEL IC50",8.52
same,pIC50,"[6]; Table 28, CPT free drugs, anaplastic large cell lymphoma cells DELBVR, CellTiter-Glo, read-out: DELBVR IC50",7.92
same,pIC50,"[7]; Table 28, CPT free drugs, anaplastic large cell lymphoma cells Karpas299, 96 h, CellTiter-Glo, read-out: Karpas299 IC50",7.92
same,pIC50,"[8]; Table 28, CPT free drugs, Hodgkin's lymphoma cells L540cy, CellTiter-Glo, read-out: L540cy IC50",7.96
same,pIC50,"[9]; Table 28, CPT free drugs, Ls174T cells, 96 h, CellTiter-Glo, read-out: Ls174T IC50",7.51
same,pIC50,"[10]; Table 28, CPT free drugs, breast cancer cells MDA-MB-231, 96 h, CellTiter-Glo, read-out: MDAMB231 IC50",7.68
same,pIC50,"[11]; Table 28, CPT free drugs, acute myeloid leukemia cells MOLM-13, 96 h, CellTiter-Glo, read-out: MOLM-13 IC50",8.22
same,pIC50,"[12]; Table 28, CPT free drugs, B-lymphocyte cancer cells SU-DHL4, 96 h, CellTiter-Glo, read-out: SU-DHL-4 IC50",8.40
CC[C@@]1(O)C(=O)OCc2c1cc1n(c2=O)Cc2c-1nc1cc3c(cc1c2CNCCCS(C)(=O)=O)OCO3 [Compound 7c],pIC50,"[1]; read-out: 786-O IC50, camptothecin free drug, 96 h",8.30
same,pIC50,[2]; read-out: A2058 IC50,8.70
same,pIC50,"[3]; read-out: BxPC3 IC50, camptothecin free drug, 96 h",8.30
same,pIC50,[4]; read-out: Calu1 IC50,7.04
same,pIC50,"[5]; read-out: DEL IC50, camptothecin free drug, 96 h",9.00
same,pIC50,"[6]; read-out: DELBVR IC50, camptothecin free drug, 96 h",8.70
same,pIC50,"[7]; read-out: Karpas299 IC50, camptothecin free drug, 96 h",8.30
same,pIC50,"[8]; read-out: L540cy IC50, camptothecin free drug, 96 h",8.70
same,pIC50,"[9]; LS174T, 96 h, read-out: Ls174T IC50, camptothecin free drug, 96 h",8.40
same,pIC50,"[10]; read-out: MDAMB231 IC50, camptothecin free drug, 96 h",7.51
same,pIC50,"[11]; read-out: MOLM-13 IC50, camptothecin free drug, 96 h",8.40
same,pIC50,"[12]; read-out: SU-DHL-4 IC50, camptothecin free drug, 96 h",8.52
CC[C@@]1(O)C(=O)OCc2c1cc1n(c2=O)Cc2c-1nc1cc(OC)c(C)c(F)c1c2CN [Compound 2z],pIC50,"[1]; CPT free drugs, Table 24, CellTiter-Glo after 96 h exposure, read-out: IC50 (nmol/L) 786-O",< 6.00
same,pIC50,"[2]; CPT free drugs, Table 24, CellTiter-Glo after 96 h exposure, read-out: IC50 (nmol/L) A2058",< 6.00
same,pIC50,"[3]; CPT free drugs, Table 24, CellTiter-Glo after 96 h exposure, read-out: IC50 (nmol/L) BxPC3",< 6.00
same,pIC50,"[4]; CPT free drugs, Table 24, CellTiter-Glo after 96 h exposure, read-out: IC50 (nmol/L) Calu1",< 6.00
same,pIC50,"[5]; CPT free drugs, Table 24, CellTiter-Glo after 96 h exposure, read-out: IC50 (nmol/L) DEL",< 6.00
same,pIC50,"[6]; CPT free drugs, Table 24, CellTiter-Glo after 96 h exposure, read-out: IC50 (nmol/L) DELBVR",< 6.00
same,pIC50,"[7]; CPT free drugs, Table 24, CellTiter-Glo after 96 h exposure, read-out: IC50 (nmol/L) Karpas299",< 6.00
same,pIC50,"[8]; CPT free drugs, Table 24, CellTiter-Glo after 96 h exposure, read-out: IC50 (nmol/L) L540cy",< 6.00
same,pIC50,"[9]; LS174T, CPT free drugs, Table 24, CellTiter-Glo after 96 h exposure, read-out: IC50 (nmol/L) Ls174T",< 6.00
same,pIC50,"[10]; CPT free drugs, Table 24, CellTiter-Glo after 96 h exposure, read-out: IC50 (nmol/L) MDAMB231",< 6.00
same,pIC50,"[11]; CPT free drugs, Table 24, CellTiter-Glo after 96 h exposure, read-out: IC50 (nmol/L) MOLM-13",< 6.00
same,pIC50,"[12]; CPT free drugs, Table 24, CellTiter-Glo after 96 h exposure, read-out: IC50 (nmol/L) SU-DHL-4",< 6.00
CC[C@@]1(O)C(=O)OCc2c1cc1n(c2=O)Cc2c-1nc1cc(F)c(C)c(F)c1c2CN [Compound 2j],pIC50,[1]; [13],8.52
same,pIC50,[2]; read-out: IC50 (nmol/L) A2058,8.70
same,pIC50,[3]; [14],8.05
same,pIC50,[4]; read-out: IC50 (nmol/L) Calu1,7.64
same,pIC50,[5]; [15],9.00
same,pIC50,[6]; [16],9.00
same,pIC50,[7]; [17],8.70
same,pIC50,[8]; [18],9.00
same,pIC50,[9]; [19],8.52
same,pIC50,[10]; [20],8.70
same,pIC50,[11]; [21],8.05
same,pIC50,[12]; [22],8.70
CC[C@@]1(O)C(=O)OCc2c1cc1n(c2=O)Cc2c-1nc1cc(F)c(C)c(Cl)c1c2CN [Compound 2y],pIC50,[1]; [13],8.52
same,pIC50,[2]; read-out: IC50 (nmol/L) A2058,9.00
same,pIC50,[3]; [14],8.22
same,pIC50,[4]; read-out: IC50 (nmol/L) Calu1,7.82
same,pIC50,[5]; [15],9.00
same,pIC50,[6]; [16],9.00
same,pIC50,[7]; [17],8.70
same,pIC50,[8]; [18],9.00
same,pIC50,[9]; [19],8.52
same,pIC50,[10]; [20],7.82
same,pIC50,[11]; [21],7.80
same,pIC50,[12]; [22],9.00
